The values that follow come from US8956645B2, “Water-soluble pharmaceutical composition comprising at least one therapeutically active substance having hydrophobic properties and at least one compound selected from among sialoglycosphingolipids, glycosphingolipids or a mixture of sialoglycosphingolipids and glycosphingolipids” (Consejo Nacional de Investigaciones Cientificas y Tecnicas …, priority 2010, dated 2015).

Test [1] has as its system HEP-2 and Hela cells. Kind of test: Cell viability by MTT assay, tumoral cells. Conditions: 24 hours. It is filed as cell-based. The method, then: FIG. 7: HEP-2 and HELA cells of tumor origin were incubated with increasing concentrations of: a)-( ? ) Ptx in DMSO, b)-( ? ) Ptx-GM1 micelles 1/25, c)-( ? ) GM1 micelles and d)-( ? ) micelles of the GM1-Ptx-albumine complex. Cellular viability was evaluated using MTT assay after 24 hs incubation.
(§1) Different cell types, tumoral such as HEP-2 and Hela, and non-tumoral as VERO and MA were incubated in MEM medium containing 2% fetal bovine serum (Natocor-Villa Carlos Paz—Córdoba—Argentina) in a CO2 incubator with 5% CO2, to confluence. Different concentrations of the compositions mentioned below were added to the cell culture: […]
(§2) a)—Ptx in DMSO as positive control b)—Ptx-GM1 micelles 1/25 molar ratio c)—GM1 micelles in equal concentrations as in b), to control the effect of the GM1 itself, and d)—micelles of the albumin-Ptx-GM1 complex
(§3) Cell viability was evaluated by MTT assay after 24 hours of incubation.

Test [2] concerns VERO and MA cells. Briefly: Cell viability by MTT assay, non-tumoral cells. It is filed as cell-based. Conditions: 24 hours. The method, then: FIG. 6: VERO and MA cells of non tumoral origin were incubated with increasing concentrations of: a)-( ? ) Ptx in DMSO, b)-( ? ) micelles of Ptx-GM1 1/25, c)-( ? ) micelles of GM1 and d)-( ? ) micelles of the albumine-Ptx-GM1 complex. Cellular viability was evaluated using MTT assay marker after 24 hs incubation.
as §1, §2, §3

For `CC(=O)O[C@H]1C(=O)[C@@]2(C)[C@H]([C@H](OC(=O)c3ccccc3)[C@]3(O)C[C@H](OC(=O)[C@H](O)[C@@H](NC(=O)c4ccccc4)c4ccccc4)C(C)=C1C3(C)C)[C@]1(OC(C)=O)CO[C@@H]1C[C@@H]2O` [Ptx, paclitaxel], the “concentration producing complete death” value is 10 ng/mL in test [1] and 100 ng/mL in test [2].
